Data reported in patent US5858684A, “Method of screening calcium receptor-active molecules” (priority 1995, dated 1999).
Entries after “also recorded” stand apart in the source; their conditions may differ.

What was measured:
[1] = serum albumin and phosphate in rats; format: in vivo, rat; conditions: any dose examined
Protocol: (§1) Compounds shown to activate the bovine parathyroid cell calcium receptor in vitro were tested for hypocalcemic activity in vivo. Male Sprague-Dawley rats (200 g) were maintained on a low calcium diet for one week prior to receiving test substance or vehicle as control. Blood was collected from the tail vein three hours after the intraperitoneal administration of NPS 467. […] Serum total calcium, albumin and phosphate were measured by techniques well known in the art.

[2] = serum/blood ionized Ca2+ in rats; format: in vivo, rat; conditions: i.p.
Protocol: as §1
Rats (male, Sprague-Dawley, 250-300 g) were fed standard rat chow and fasted overnight prior to the experiment. NPS R-467 was suspended in corn oil and administered as a single oral dose through a gavage needle. Three hours later a sample of blood was taken from the tail vein and assessed for ionized Ca^2+ levels.

circulating PTH in rats = format: in vivo, rat
[3] = system: inositol phosphate formation in bovine parathyroid cells; assay: inositol phosphate formation in bovine parathyroid cells; format: cell-based
Protocol: After 30 seconds, the reaction was terminated by the addition of CHCl3 :MeOH:HCl and IP1 (circles) and IP3 (triangles) separated by anion exchange chromatography. Each point is the mean of 2 experiments, each performed in triplicate.
This section describes procedures measuring inositol phosphate formation. Membrane phospholipids were labeled by incubating parathyroid cells with 4 μCi/ml ^3 H-myo-inositol for 20-24 hours. Cells were then washed and resuspended in PCB containing 0.5 mM CaCl2 and 0.1% BSA. Incubations were performed in microfuge tubes in the absence or presence of various concentrations of organic polycation for different times. Reactions were terminated by the addition of 1 ml chloroform-methanol-12N HCl (200:100:1; v/v/v). Aqueous phytic acid hydrolysate (200 μl; 25 μg phosphate/tube). The tubes were centrifuged and 600 μl of the aqueous phase was diluted into 10 ml water.
Inositol phosphates were separated by ion-exchange chromatography using AG1-X8 in either the chloride- or formate-form. When only IP3 levels were to be determined, the chloride-form was used, whereas the formate form was used to resolve the major inositol phosphates (IP3, IP2, and IP1). For determination of just IP3, the diluted sample was applied to the chloride-form column and the column was washed with 10 ml 30 mM HCl followed by 6 ml 90 mM HCl and the IP3 was eluted with 3 ml 500 mM HCl. The last eluate was diluted and counted. For determination of all major inositol phosphates, the diluted sample was applied to the formate-form column and IP1, IP2, and IP3 eluted sequentially by increasing concentrations of formate buffer. The eluted samples from the formate columns were rotary evaporated, the residues brought up in cocktail, and counted.

[4] = system: PTH secretion from bovine parathyroid cells; assay: PTH secretion from bovine parathyroid cells; format: cell-based
Protocol: PTH secretion was measured by first suspending cells in PCB containing 0.5 mM CaCl2 and 0.1% BSA.

[5] = system: parathyroid cell calcium receptor; format: cell-based
Protocol: For example, bovine parathyroid cells loaded with fura-2 are initially suspended in buffer containing 0.5 mM CaCl2. A test substance is added to the cuvette in a small volume (5-15 μl) and changes in the fluorescence signal are measured. Cumulative increases in the concentration of the test substance are made in the cuvette until some predetermined concentration is achieved or no further changes in fluorescence are noted.
This section describes procedures used to obtain and treat parathyroid cells from calves and humans. […] Human parathyroid glands, were obtained from patients undergoing surgical removal of parathyroid tissue for primary or uremic hyperparathyroidism (uremic HPT), and were treated similarly to bovine tissue.
Glands were trimmed of excess fat and connective tissue and then minced with fine scissors into cubes approximately 2-3 mm on a side. Dissociated parathyroid cells were prepared by collagenase digestion and then purified by centrifugation in Percoll buffer. The resultant parathyroid cell preparation was essentially devoid of red blood cells, adipocytes, and capillary tissue as assessed by phase contrast microscopy and Sudan black B staining. Dissociated and purified parathyroid cells were present as small clusters containing 5 to 20 cells.
The cells were then pelleted, resuspended in the same buffer, but lacking the ester, and incubated a further 15 minutes at 37° C. The cells were subsequently washed twice with PCB containing 0.5 mM CaCl2 and 0.5% BSA and maintained at room temperature (about 20° C.). Immediately before use, the cells were diluted five-fold with prewarmed 0.5 mM CaCl2 -PCB to obtain a final BSA concentration of 0.1%. The concentration of cells in the cuvette used for fluorescence recording was 1-2×10^6 /ml.
The fluorescence of indicator-loaded cells was measured at 37° C. in a spectrofluorimeter (Biomedical Instrumentation Group, University of Pennsylvania, Philadelphia, Pa.) equipped with a thermostated cuvette holder and magnetic stirrer using excitation and emission wavelengths of 340 and 510 nm, respectively. […] Leakage of dye is dependent on temperature and most occurs within the first 2 minutes after warming the cells in the cuvette. Dye leakage increases only very slowly thereafter. To correct the calibration for dye leakage, cells were placed in the cuvette and stirred at 37° C. for 2-3 minutes. The cell suspension was then removed, the cells pelleted, and the supernatant returned to a clean cuvette. […] This estimate was subtracted from the apparent Fmin.
Dissociated bovine parathyroid cells were purified on gradients of Percoll and cultured overnight in serum-free medium.

[6] = cited from earlier work
[7] = target: T1, bovine parathyroid cell calcium receptor (BoPCaR 1) (Bos taurus, UniProt P35384); assay: inositol 1,4,5-triphosphate in Xenopus oocytes expressing BoPCaR 1; format: cell-based; conditions: 10 μg/ml, 48 hours
T1 construct: Xenopus oocytes were injected with BoPCaR 1, the 5.3 Kb cDNA encoding a bovine parathyroid cell calcium receptor; expressed in transfected cells; host or cells: Xenopus laevis oocytes injected with cRNA/cDNA of BoPCaR 1
T1 sequence (P35384 20-1085): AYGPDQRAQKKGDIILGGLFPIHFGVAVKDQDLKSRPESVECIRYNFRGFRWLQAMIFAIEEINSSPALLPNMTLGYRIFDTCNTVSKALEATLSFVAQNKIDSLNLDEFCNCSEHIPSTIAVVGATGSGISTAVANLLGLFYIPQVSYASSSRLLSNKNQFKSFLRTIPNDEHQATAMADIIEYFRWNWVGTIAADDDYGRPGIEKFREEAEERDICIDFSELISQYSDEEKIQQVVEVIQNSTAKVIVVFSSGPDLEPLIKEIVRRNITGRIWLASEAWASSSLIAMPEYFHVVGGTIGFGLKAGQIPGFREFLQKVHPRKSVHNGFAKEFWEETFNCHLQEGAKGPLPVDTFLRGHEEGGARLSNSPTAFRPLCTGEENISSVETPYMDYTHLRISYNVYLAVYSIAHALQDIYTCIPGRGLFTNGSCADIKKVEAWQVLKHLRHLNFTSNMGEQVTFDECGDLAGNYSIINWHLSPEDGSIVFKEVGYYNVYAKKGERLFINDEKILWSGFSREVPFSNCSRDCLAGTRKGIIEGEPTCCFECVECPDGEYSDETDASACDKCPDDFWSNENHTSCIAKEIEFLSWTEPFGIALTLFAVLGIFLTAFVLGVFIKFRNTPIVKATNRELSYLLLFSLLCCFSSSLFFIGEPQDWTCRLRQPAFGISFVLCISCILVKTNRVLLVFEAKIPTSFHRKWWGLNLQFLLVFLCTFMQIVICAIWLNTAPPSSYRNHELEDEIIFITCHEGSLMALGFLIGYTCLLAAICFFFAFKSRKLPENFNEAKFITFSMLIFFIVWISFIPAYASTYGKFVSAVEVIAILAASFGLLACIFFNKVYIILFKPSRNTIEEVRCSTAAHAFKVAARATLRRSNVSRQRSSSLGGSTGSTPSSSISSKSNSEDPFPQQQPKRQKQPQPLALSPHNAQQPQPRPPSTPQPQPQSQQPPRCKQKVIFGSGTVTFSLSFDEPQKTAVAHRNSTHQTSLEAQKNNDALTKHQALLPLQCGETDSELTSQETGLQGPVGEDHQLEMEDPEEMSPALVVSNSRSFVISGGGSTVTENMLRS
Description: These responses are mediated by the following series of biochemical events:
(1) Activation of phospholipase C by a pertussis toxin-sensitive guanine nucleotide regulatory (G) protein resulting in 4-7 fold increases in the levels of inositol 1,4,5-triphosphate (IP3).

net positive charge = format: physicochemical
[8] = system: cyclic AMP formation in bovine parathyroid cells; format: cell-based
Protocol: Cells were incubated as above for PTH secretion studies and at the end of the incubation, a 0.15-ml sample was taken and transferred to 0.85 ml of hot (70° C.) water and heated at this temperature for 5-10 minutes. The tubes were subsequently frozen and thawed several times and the cellular debris sedimented by centrifugation. Portions of the supernatant were acetylated and cyclic AMP concentrations determined by radioimmunoassay.
Each value is the mean±SEM of three experiments.

## COc1cccc(C(C)NCCCc2ccccc2)c1 (racemic) [NPS 467]
[1]
  serum albumin or phosphate levels: no change in serum albumin or phosphate levels
[2]; low calcium diet, 3 hours after dosing, rats
  serum or blood Ca2+: dose-dependent reduction in serum or whole blood
[2]; returned toward control levels after 24 hours
  time of maximal hypocalcemic effect: maximal within three hours
Circulating PTH in rats
  circulating levels of PTH: dose-dependent reduction in circulating levels of PTH

## CCCCCCCCCCCCCC(=O)O[C@@H]1[C@@H](C)[C@@]2(O)[C@@H](C=C(CO)C[C@]3(O)C(=O)C(C)=C[C@@H]23)[C@@H]2C(C)(C)[C@]12OC(C)=O [PMA, phorbol myristate acetate]
[3]; 100 nM PMA, 5 minutes
  IP1 formation evoked by extracellular Ca2+ or spermine: depresses the formation of IP1
[4]; 100 nM PMA
  shift of concentration-response curve for PTH secretion: shifts to the right
[5]; 100 nM PMA
  shift of concentration-response curve for [Ca2+]i: shifts to the right

## NCCCC[C@H](N)C(=O)O [lysine]
[6]
  interaction with phospholipid vesicles: not interacting to a significant extent

## pertussis toxin
[7]
  inhibition of the increase in IP3 by pertussis toxin: 75%

## protamine
Net positive charge
  net positive charge: +21
[3]
  formation of inositol phosphates: increases the formation of inositol phosphates
  onset of increase in IP3 formation: ≤ 30 s
[4]; bovine parathyroid cells
  inhibition of PTH secretion: inhibit PTH secretion; also recorded: inhibited PTH secretion to the same extent
[8]
  isoproterenol-induced cyclic AMP: depressed isoproterenol-induced increases
[5]
  increase in [Ca2+]i / mobilization of intracellular Ca2+: evoked rapid and transient increases
